Like-named read-outs stand apart in the source and are kept apart here.
How the values were obtained:
[1] = tested on: RPE-Neo or RPE-MYC or RPE-MYC expressing an EGFP-Histone 2B fusion protein; assay: Phenotypic screening assay: arrest in mitosis, change in DNA content (polyploidy), cell death; format: cell-based; conditions: 20 nM to 20 μM, 24, 48 or 72 hours
How it was run: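 RPE-Neo, RPE-MYC or RPE-MYC EGFP-H2B cells plated 18-24 h before treatment with compounds at 20 nM to 20 μM. Mitotic arrest or DNA-content change scored by automated imaging at 24, 48 or 72 h; proliferation by MTT. Values binned into A–D ranges.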

RPE-Neo or RPE-MYC cells = assay: MTT assay of cellular proliferation (proliferative arrest); format: cell-based; conditions: read-out: Min. Effective conc. for Proliferative arrest (>50%)
[2] = read-out: Min. Effective conc. for Along with Cell Death
[3] = ≥5%, read-out: Min. Effective conc. for Mitotic Arrest (≥5%)
[4] = ≥5%, read-out: Min. Effective conc. for Polyploidy (≥5%)

Measured: minimal effective concentration

COc1ccc(CN2C(=O)CC(c3ncc(C)o3)=Cc3ccc(-c4cnn(C(C)C(C)O)c4)cc32)cc1 (stereo not shown) [Compound 83, 8-(1-(3-Hydroxybutan-2-yl)-1H-pyrazol-4-yl)-1-(4-methoxybenzyl)-4-(5-methyloxazol-2-yl)-1,3-dihydro-2H-benzo[b]azepin-2-one]
0.001 to 1 µM: [1]; [2] | [1]; [3] | [1]; [4] | RPE-Neo or RPE-MYC cells

CCS(=O)(=O)N1CC(CC#N)(n2cc(-c3ccc4c(c3)N(Cc3ccc(OC)cc3)C(=O)CC(c3ncc(C)o3)=C4)cn2)C1 [Compound 84, 2-(1-(Ethylsulfonyl)-3-(4-(1-(4-methoxybenzyl)-4-(5-methyloxazol-2-yl)-2-oxo-2,3-dihydro-1H-benzo[b]azepin-8-yl)-1H-pyrazol-1-yl)azetidin-3-yl)acetonitrile]
0.001 to 1 µM: [1]; [2] | [1]; [3] | [1]; [4] | RPE-Neo or RPE-MYC cells

COc1ccc(CN2C(=O)CC(c3ncc(C)o3)=Cc3ccc(-c4cnn(C5(CC#N)CNC5)c4)cc32)cc1 [Compound 85, 2-(3-(4-(1-(4-Methoxybenzyl)-4-(5-methyloxazol-2-yl)-2-oxo-2,3-dihydro-1H-benzo[b]azepin-8-yl)-1H-pyrazol-1-yl)azetidin-3-yl)acetonitrile]
0.001 to 1 µM: [1]; [2] | [1]; [3] | [1]; [4] | RPE-Neo or RPE-MYC cells

COc1ccc(CN2C(=O)CC(c3ncc(C)o3)=Cc3ccc(-c4cnn(C(C)(C)C#N)c4)cc32)cc1 [Compound 86, 2-(4-(1-(4-Methoxybenzyl)-4-(5-methyloxazol-2-yl)-2-oxo-2,3-dihydro-1H-benzo[b]azepin-8-yl)-1H-pyrazol-1-yl)-2-methylpropanenitrile]
0.001 to 1 µM: [1]; [2] | [1]; [3] | [1]; [4] | RPE-Neo or RPE-MYC cells

COc1ccc(CN2C(=O)CC(c3ncc(C)o3)=Cc3ccc(-c4cnn(C5(CC#N)CN(S(C)(=O)=O)C5)c4)cc32)cc1 [Compound 87, 2-(3-(4-(1-(4-Methoxybenzyl)-4-(5-methyloxazol-2-yl)-2-oxo-2,3-dihydro-1H-benzo[b]azepin-8-yl)-1H-pyrazol-1-yl)-1-(methylsulfonyl)azetidin-3-yl)acetonitrile]
0.001 to 1 µM: [1]; [2] | [1]; [3] | [1]; [4] | RPE-Neo or RPE-MYC cells

COc1ccc(CN2C(=O)CC(c3ncc(C)o3)=Cc3ccc(-c4cnn(C5(CC#N)COC5)c4)cc32)cc1 [Compound 88, 2-(3-(4-(1-(4-Methoxybenzyl)-4-(5-methyloxazol-2-yl)-2-oxo-2,3-dihydro-1H-benzo[b]azepin-8-yl)-1H-pyrazol-1-yl)oxetan-3-yl)acetonitrile]
0.001 to 1 µM: [1]; [2] | [1]; [3] | [1]; [4] | RPE-Neo or RPE-MYC cells

COc1ccc(CN2C(=O)CC(c3ncc(C)o3)=Cc3ccc(-c4cnn(C5(CC#N)CN(S(=O)(=O)C6CC6)C5)c4)cc32)cc1 [Compound 89, 2-(1-(Cyclopropylsulfonyl)-3-(4-(1-(4-methoxybenzyl)-4-(5-methyloxazol-2-yl)-2-oxo-2,3-dihydro-1H-benzo[b]azepin-8-yl)-1H-pyrazol-1-yl)azetidin-3-yl)acetonitrile]
0.001 to 1 µM: [1]; [2] | [1]; [3] | [1]; [4] | RPE-Neo or RPE-MYC cells

COc1ccc(CN2C(=O)CC(c3ncc(C)o3)=Cc3ccc(-c4cnn(C5(CC#N)CN(C(=O)C6CC6)C5)c4)cc32)cc1 [Compound 90, 2-(1-(Cyclopropanecarbonyl)-3-(4-(1-(4-methoxybenzyl)-4-(5-methyloxazol-2-yl)-2-oxo-2,3-dihydro-1H-benzo[b]azepin-8-yl)-1H-pyrazol-1-yl)azetidin-3-yl)acetonitrile]
0.001 to 1 µM: [1]; [2] | [1]; [3] | [1]; [4] | RPE-Neo or RPE-MYC cells

COc1ccc(CN2C(=O)CC(c3ncc(C)o3)=Cc3ccc(-c4cnn(C5(CC#N)CN(S(=O)(=O)N(C)C)C5)c4)cc32)cc1 [Compound 91, 3-(Cyanomethyl)-3-(4-(1-(4-methoxybenzyl)-4-(5-methyloxazol-2-yl)-2-oxo-2,3-dihydro-1H-benzo[b]azepin-8-yl)-1H-pyrazol-1-yl)-N,N-dimethylazetidine-1-sulfonamide]
0.001 to 1 µM: [1]; [2] | [1]; [3] | [1]; [4] | RPE-Neo or RPE-MYC cells

COc1ccc(CN2C(=O)CC(c3ncc(C)o3)=Cc3ccc(-c4cnn(C5(C(N)=O)CC5)c4)cc32)cc1 [Compound 92, 1-(4-(1-(4-Methoxybenzyl)-4-(5-methyloxazol-2-yl)-2-oxo-2,3-dihydro-1H-benzo[b]azepin-8-yl)-1H-pyrazol-1-yl)cyclopropane-1-carboxamide]
0.001 to 1 µM: [1]; [2] | [1]; [3] | [1]; [4] | RPE-Neo or RPE-MYC cells

COc1ccc(CN2C(=O)CC(c3nnc(C)o3)=Cc3ccc(-c4cnn(CC(C)(C)O)c4)cc32)cc1 [Compound 93, 8-(1-(2-Hydroxy-2-methylpropyl)-1H-pyrazol-4-yl)-1-(4-methoxybenzyl)-4-(5-methyl-1,3,4-oxadiazol-2-yl)-1,3-dihydro-2H-benzo[b]azepin-2-one]
0.001 to 1 µM: [1]; [2] | [1]; [3] | [1]; [4] | RPE-Neo or RPE-MYC cells

COc1ccc(CN2C(=O)CC(c3nc(C4CC4)no3)=Cc3ccc(-c4cnn(CC(C)(C)O)c4)cc32)cc1 [Compound 95, 4-(3-cyclopropyl-1,2,4-oxadiazol-5-yl)-8-(1-(2-hydroxy-2-methylpropyl)-1H-pyrazol-4-yl)-1-(4-methoxybenzyl)-1,3-dihydro-2H-benzo[b]azepin-2-one]
0.001 to 1 µM: [1]; [2] | [1]; [3] | [1]; [4] | RPE-Neo or RPE-MYC cells

COc1ccc(CN2C(=O)CC(c3ccon3)=Cc3ccc(-c4cnn(CC(C)(C)O)c4)cc32)cc1 [Compound 97, 8-(1-(2-Hydroxy-2-methylpropyl)-1H-pyrazol-4-yl)-4-(isoxazol-3-yl)-1-(4-methoxybenzyl)-1,3-dihydro-2H-benzo[b]azepin-2-one]
0.001 to 1 µM: [1]; [2] | [1]; [3] | [1]; [4] | RPE-Neo or RPE-MYC cells

COc1ccc(CN2C(=O)CC(c3nnco3)=Cc3ccc(-c4cnn(CC(C)(C)O)c4)cc32)cc1 [Compound 98, 8-(1-(2-Hydroxy-2-methylpropyl)-1H-pyrazol-4-yl)-1-(4-methoxybenzyl)-4-(1,3,4-oxadiazol-2-yl)-1,3-dihydro-2H-benzo[b]azepin-2-one]
0.001 to 1 µM: [1]; [2] | [1]; [3] | [1]; [4] | RPE-Neo or RPE-MYC cells

COc1ccc(CN2C(=O)CC(c3nc(C)no3)=Cc3ccc(-c4cnn(CC(C)(C)O)c4)cc32)cc1 [Compound 99, 8-(1-(2-Hydroxy-2-methylpropyl)-1H-pyrazol-4-yl)-1-(4-methoxybenzyl)-4-(3-methyl-1,2,4-oxadiazol-5-yl)-1,3-dihydro-2H-benzo[b]azepin-2-one]
0.001 to 1 µM: [1]; [2] | [1]; [3] | [1]; [4] | RPE-Neo or RPE-MYC cells

[2H]C([2H])([2H])Oc1ccc(CN2C(=O)CC(c3ncc(C)o3)=Cc3ccc(-c4cnn(CC(C)(C)O)c4)cc32)cc1 [Compound 100, 8-(1-(2-Hydroxy-2-methylpropyl)-1H-pyrazol-4-yl)-1-(4-(methoxy-d3)benzyl)-4-(5-methyloxazol-2-yl)-1,3-dihydro-2H-benzo[b]azepin-2-one]
0.001 to 1 µM: [1]; [2] | [1]; [3] | [1]; [4] | RPE-Neo or RPE-MYC cells

Cc1cnc(C2=Cc3ccc(-c4cnn(CC(C)(C)O)c4)cc3N(Cc3ccc(C)c(F)c3)C(=O)C2)o1 [Compound 101, 1-(3-fluoro-4-methylbenzyl)-8-(1-(2-hydroxy-2-methylpropyl)-1H-pyrazol-4-yl)-4-(5-methyloxazol-2-yl)-1,3-dihydro-2H-benzo[b]azepin-2-one]
0.001 to 1 µM: [1]; [2] | [1]; [3] | [1]; [4] | RPE-Neo or RPE-MYC cells

COc1ccc(CN2C(=O)CC(c3ncc(C)o3)=Cc3ccc(-c4cnn(CC(C)(C)O)c4)cc32)cc1F [Compound 102, 1-(3-fluoro-4-methoxybenzyl)-8-(1-(2-hydroxy-2-methylpropyl)-1H-pyrazol-4-yl)-4-(5-methyloxazol-2-yl)-1,3-dihydro-2H-benzo[b]azepin-2-one]
0.001 to 1 µM: [1]; [2] | [1]; [3] | [1]; [4] | RPE-Neo or RPE-MYC cells

COc1ccc(CN2C(=O)CC(c3ncc(C)o3)=Cc3ccc(-c4cnn(CC(C)(C)O)c4)cc32)cn1 [Compound 103, 8-(1-(2-Hydroxy-2-methylpropyl)-1H-pyrazol-4-yl)-1-((6-methoxypyridin-3-yl)methyl)-4-(5-methyloxazol-2-yl)-1,3-dihydro-2H-benzo[b]azepin-2-one]
0.001 to 1 µM: [1]; [2] | [1]; [3] | [1]; [4] | RPE-Neo or RPE-MYC cells

From patent US20260317340A1, “COMPOUNDS, COMPOSITIONS, AND METHODS OF TREATING DISORDERS” (Chengdu Anticancer Bioscience, Ltd., priority 2023, published 2026)
